Experimental data reported in patent US7141553B2, “A3AR agonists for the treatment of inflammatory arthritis” (Can-Fite Biopharma Ltd. Israel, priority 2002, dated 2006).

Assays:
[1] = tested on: collagen-induced arthritis; assay: Collagen-induced-arthritis (CIA) model in mice; assay type: in vivo, mouse
Procedure: Male DBA mice, aged 10 weeks, were injected SC with 100 μl of Type II collagen 200 μg in complete Freund's adjuvant (CFA). On day 21 a booster injection of the same emulsion was administered. Mice were inspected daily for symptoms of clinical arthritis.
The inflammatory intensity, presented as joint swelling, was measured by Caliper (Mitutoyo Co., Tokyo, Japan). Histopathological sections of these decalcified whole joints were stained with hematoxylin-eosin. Slides were screened for the following arthritic characteristics: inflammatory cell infiltration, synovial cell lining hyperplasia and pannus formation. The histological assessment of the knees inflammation intensity was divided to four parameters: • 1. Lymphatic follicle like formation—graded 0–4 • 2. Inflammatory cells infiltration—graded 0–4 • 3. Synovial cells hyperplasia—graded 0–4 • 4. Pannus formation—graded 0–4 The arithmetic sum of these four parameters above all together designated-“Total Arthritic Score” (Goldenberg et al, J. Rheumatol. 1: 5–11, 1983). The white blood cell (WBC) count and the serum levels of the pro-inflammatory cytokine TMF-α served as humoral markers of the immune system activation. Tumor necrosis factor-α sera level was determined, in accordance with the manufacturer's guidelines, by ELISA kit “Quantikine M” (R&D Systems, Minneapolis, Minn., USA). 4. Statistical Analysis
Male DBA mice were treated to produce collagen-induced-arthritis as described above. Each group contained 10 animals and each experiment was conducted at least three times.
IB-MECA (10 μg/kg) was orally administered by gavage, twice daily starting at onset of clinical arthritis. The […] control received vehicle only. The inflammatory intensity in the CIA model was determined in accordance with the increase in the mice hind paw's diameter, measured by caliper (Mitotoyo, Tokyo, Japan). The mean score in each experimental group was designated as the “Clinical Score”. […]
The assessment of all pathologic findings were performed blind (by L. R-W and M. H) using semi-quantitative grading scales of 0 to 4 for the following parameters: […]

[2] = Repeat dose study in healthy men, plasma pharmacokinetics; assay type: in vivo, human; conditions: for Cmax: n=5
Procedure: In the single dose study, 15 healthy men (3 groups of 5) received a single oral dose of IB-MECA (1, 5 or 10 mg) or placebo. In each group, 1 subject received placebo. In the repeated dose study, 28 healthy men (4 groups of 7) received repeated oral doses of IB-MECA (2, 3, 4 or 5 mg) or placebo every 12 h for 7 days. In each group, 2 subjects received placebo.
In the single dose study, a solution with IB-MECA powder in 30% Cremophor RH40 (BASF) was used. In the repeated dose study, an aqueous 0.5% methylcellulose suspension (Methocel A4M Premium, The Dow Chemical Company) was used. In both studies, the study medication was taken orally as a drink, followed by 50 ml of tap water.
The following procedures were done: • Safety assesment: laboratory assessments (routine biochemistry and urinalysis), physical examination, 12-lead ECG, ambulatory ECG, pulmonary function testing (FEV1), vital signs (semi-recumbent in the single dose study; semi-recumbent and standing in the repeat dose study). Adverse events were recorded throughout both studies. • Determination of IB-MECA blood level: in the single dose study blood samples for assay of IB-MECA were taken immediately before and at 0.25, 0.5, 1, 2, 4, 8, 12, 24, and 48 h after dosing; in the repeat dose study—blood samples were taken immediately before and at 0.25, 0.5, 1, 2, 4, 8, and 12 h after dosing on Day 1, before dosing on Days 2–6, and before and at 0.25, 0.5, 1, 2, 4, 8, 12, and 24 h after dosing on Day 7.
Plasma samples were assayed for IB-MECA using LC/MS/MS. The lower limit of quantification (LLOQ) was 0.1 ng/mL. Intra-assay coefficients of variation (CV) were <5.0% and inter-assay CVs were <9.4%.
Maximum concentration (Cmax) and time to maximum concentration (tmax) were observed values. Other pharmacokinetic parameters (half-life, t^1/2; AUC; and clearance, CL/F) were calculated by non-compartmental methods using WinNonlin® software (version 3.0, Pharsight, Mountain View, Calif., US). Accumulation indices of Cmax and AUC were calculated as ratio of values at steady state (Day 7) to the values on Day 1.

[3] = 2 mg every 12 h, Day 1, mean (SD)
[4] = 2 mg every 12 h, Day 7, mean (SD)
[5] = 3 mg every 12 h, Day 1, mean (SD)
[6] = 3 mg every 12 h, Day 7, mean (SD)
[7] = 4 mg every 12 h, Day 1, mean (SD)
[8] = 4 mg every 12 h, Day 7, mean (SD)
[9] = 5 mg every 12 h, Day 1, mean (SD)
[10] = 5 mg every 12 h, Day 7, mean (SD)
[11] = repeated doses, independent of dose

CNC(=O)[C@H]1O[C@@H](n2cnc3c(NCc4cccc(I)c4)ncnc32)[C@H](O)[C@@H]1O [IB-MECA, N6-(3-iodobenzyl)-adenosine-5′-N-methyl-uronamide]
intensity of the arthritis ([1]; 10 μg/kg orally, day 21 difference significant p<0.02): reduced throughout the experimental period | histology sections of joints ([1]; 10 μg/kg, FIG. 7C): minimal inflammatory changes | histology score ([1]; 10 μg/kg, p<0.01 vs control, FIG. 8): 1.0±0.6 | AUC (AUC(inf) on Day 1) [2, 3]: 207.4 (52.0) ng · h/mL | AUC(0–12) [2, 3]: 155.2 (39.1) ng · h/mL | CL/F [2, 3]: 10.1 (2.3) L/h | t1/2 [2, 3]: 5.52 (0.2) h | Cmax [2, 3]: 22.0 (3.3) ng/mL | tmax ([2]; 2 mg every 12 h, Day 1, median (range)): 2 (1–4) h | AUC (AUC(0–24) on Day 7) [2, 4]: 346.3 (64.0) ng · h/mL | AUC(0–12) [2, 4]: 242.4 (41.4) ng · h/mL | CL/F [2, 4]: 4.9 (0.7) L/h | t1/2 [2, 4]: 9.83 (1.2) h | Cmax [2, 4]: 30.9 (3.1) ng/mL | tmax ([2]; 2 mg every 12 h, Day 7, median (range)): 2 (1–2) h | AUC (AUC(inf) on Day 1) [2, 5]: 423.5 (27.5) ng · h/mL | AUC(0–12) [2, 5]: 304.5 (19.5) ng · h/mL | CL/F [2, 5]: 7.1 (0.5) L/h | t1/2 [2, 5]: 6.29 (1.0) h | Cmax [2, 5]: 49.3 (9.7) ng/mL | tmax ([2]; 3 mg every 12 h, Day 1, median (range)): 2 (1–2) h | AUC (AUC(0–24) on Day 7) [2, 6]: 512.1 (74.1) ng · h/mL | AUC(0–12) [2, 6]: 341.6 (38.1) ng · h/mL | CL/F [2, 6]: 5.0 (0.6) L/h | t1/2 [2, 6]: 9.25 (0.8) h | Cmax [2, 6]: 49.0 (7.9) ng/mL | tmax ([2]; 3 mg every 12 h, Day 7, median (range)): 1 (1–2) h | AUC (AUC(inf) on Day 1) [2, 7]: 400.2 (85.7) ng · h/mL | AUC(0–12) [2, 7]: 297.0 (57.2) ng · h/mL | CL/F [2, 7]: 10.4 (2.1) L/h | t1/2 [2, 7]: 5.77 (0.6) h | Cmax [2, 7]: 46.2 (11.4) ng/mL | tmax ([2]; 4 mg every 12 h, Day 1, median (range)): 2 (1–2) h | AUC (AUC(0–24) on Day 7) [2, 8]: 640.3 (73.7) ng · h/mL | AUC(0–12) [2, 8]: 458.3 (54.8) ng · h/mL | CL/F [2, 8]: 5.4 (0.7) L/h | t1/2 [2, 8]: 8.93 (0.8) h | Cmax [2, 8]: 58.1 (10.4) ng/mL | tmax ([2]; 4 mg every 12 h, Day 7, median (range)): 1 (1–2) h | AUC (AUC(inf) on Day 1) [2, 9]: 596.1 (196.6) ng · h/mL | AUC(0–12) [2, 9]: 461.6 (157.4) ng · h/mL | CL/F [2, 9]: 9.3 (3.5) L/h | t1/2 [2, 9]: 4.96 (0.3) h | Cmax [2, 9]: 63.6 (22.0) ng/mL | tmax ([2]; 5 mg every 12 h, Day 1, median (range)): 2 (1–2) h | AUC (AUC(0–24) on Day 7) [2, 10]: 818.4 (214.0) ng · h/mL | AUC(0–12) [2, 10]: 601.0 (163.6) ng · h/mL | CL/F [2, 10]: 5.4 (1.5) L/h | t1/2 [2, 10]: 9.39 (0.6) h | Cmax [2, 10]: 79.5 (24.1) ng/mL | tmax ([2]; 5 mg every 12 h, Day 7, median (range)): 2 (2–2) h | accumulation index for AUC ([2]; ratio Day 7 to Day 1): 1.1–1.6 | accumulation index for Cmax ([2]; ratio Day 7 to Day 1): 1–1.4 | tmax ([2]; repeated doses 2-5 mg every 12 h): 1 to 2 h | steady state reached by ([2]; repeated doses every 12 h): ≤ 3 days | apparent plasma clearance (CL/F) [2, 11]: 5 to 10 L/h | half-life at steady state [2, 11]: 9 to 10 h
